Source: US9918472B2, “Animal repellent” (SCENT SCIENCE INTERNATIONAL INC., priority 2010, dated 2018)

Experiments:
[1] = tested on: wild-type mice (O-MACS-Cre); assay: Freezing test, quantification of fear reaction due to odor; assay type: in vivo, mouse; settings: for freezing-inducing effect at too high a concentration: Example 3, FIG. 4, dilution series up to 1.082 mmol; for Freezing time (%): mice, n=8, 20 min observation, value ± standard error, t-test vs 1,3-dioxolane
Experimental: About 5- to 7-month-old littermate wild-type mice (O-MACS-Cre) were placed in the mouse cages set in a draft (one mouse per cage) to perform habituation for 20 min. Similarly, 20 min habituation was performed the next day. On day 3, odor pods containing odorant molecules were placed in the cages in the draft, and the mice were placed in the cages with odor pods. The behaviors of the mice from day 1 to day 3 were video-recorded and the freezing time was analyzed by FreezeFrame system manufactured by NeuroScience Inc. The time during which the mouse was motionless for 2 seconds or longer was measured as a freezing time, and the time of freezing during the 20 min observation time was shown in %. The freezing time on day 2 was shown as control without odor in the data. As the mice used for experiment, male mice were used to avoid abnormality in the olfactory sense due to the sexual cycle. […] The odor pod refers to an apparatus containing filter paper impregnated with odorant and placed in a plastic petri dish with a lid having a hole. In this experiment, 2 MB (2-methylbutyric acid) 45 μL (270.6 μmol) or TMT 35 μL (270.6 μmol) was used as the odorant molecule.
Using various compounds, the freezing test shown in Experimental Example 1 was performed. […] For the experiment, 270.6 μmol of odorant molecules were used. The abbreviations and the formal names of the odorant molecules used are as follows.
The influence of the concentration of the odorant molecule on the effect of inducing a freezing behavior was analyzed. […] The freezing behavior was analyzed by a method similar to that in Example 1. The amount of the odorant molecules used of the both compounds was 270.6 nmol for 0.001, 2.706 μmol for 0.01, 27.06 μmol for 0.1, 270.6 μmol for 1, and 1.082 mmol for 4. The odorant molecule concentration in the gas in the test system was measured by gas chromatography, and the presence of a dependency relationship between the amount of the odorant molecules used for the test and the odorant molecule concentration in the gas in the test system was confirmed.
Using the following test compounds (13 kinds), the freezing test shown in Experimental Example 1 was performed. […] For the experiment, 270.6 μmol of odorant compounds were used.

[2] = tested on: mice; assay: Acclimation test (freezing time on daily odor exposure for 8 days); assay type: in vivo, mouse
Experimental: About 5- to 7-month-old littermate wild-type mice (O-MACS-Cre) were placed in the mouse cages set in a draft (one mouse per cage) to perform habituation for 20 min. Similarly, 20 min habituation was performed the next day. On day 3, odor pods containing odorant molecules were placed in the cages in the draft, and the mice were placed in the cages with odor pods. The behaviors of the mice from day 1 to day 3 were video-recorded and the freezing time was analyzed by FreezeFrame system manufactured by NeuroScience Inc. The time during which the mouse was motionless for 2 seconds or longer was measured as a freezing time, and the time of freezing during the 20 min observation time was shown in %. The freezing time on day 2 was shown as control without odor in the data. As the mice used for experiment, male mice were used to avoid abnormality in the olfactory sense due to the sexual cycle. Each experiment was performed with n=5. The odor pod refers to an apparatus containing filter paper impregnated with odorant and placed in a plastic petri dish with a lid having a hole. In this experiment, 2 MB (2-methylbutyric acid) 45 μL (270.6 μmol) or TMT 35 μL (270.6 μmol) was used as the odorant molecule.
Acclimation test: By the method of Experimental Example 1, mice (N=8) were forced to smell the test compound (2MT) every day for 8 days, and the freezing time (%) was measured over time. As a control, mice that were forced to learn to feel fear with the smell of anisole by a method including applying an electric shock immediately after smelling anisole (hereinafter to be also referred to as fear learning mice) were used. The aforementioned fear learning mice (N=8) were forced to smell anisole every day for 8 days, and the freezing time (%) was measured over time.

## CC1=NCCS1 [2MT, 2-methyl-2-thiazoline]
[1]
  freezing-inducing effect at too high a concentration: decreased effect
[1]; Example 4, 270.6 μmol odorant
  Freezing time (%): 49.9 ± 3.0 %
[2]; Example 5, FIG. 5, mice N=8, not conditioned
  freezing time profile on smelling the odor every day for 8 days: did not decrease but rather increased

## c1ccsc1 [thiophene]
[1]; Example 4, 270.6 μmol odorant
  Freezing time (%): 2.7 ± 1.6%

## C1CSCN1 [thiazolidine]
[1]; Example 4, 270.6 μmol odorant
  Freezing time (%): 18.2 ± 5.3 %

## CSC1=NCCS1 [2-methylthio-2-thiazoline]
[1]; Example 4, 270.6 μmol odorant
  Freezing time (%): 6.2 ± 3.0%

## CC1CNCS1 (centres unmarked) [5-methylthiazolidine]
[1]; Example 4, 270.6 μmol odorant
  Freezing time (%): 4.2 ± 2.7%

## COc1ccccc1 [anisole]
[2]; Example 5, FIG. 5, fear learning mice, anisole every day for 8 days, N=8
  freezing time profile on smelling the odor every day: decreased with time
[2]; Example 5, fear learning mice (electric shock after smelling anisole), N=8
  freezing time with anisole the next day: not less than 50%

## C1COCO1 [1,3-dioxolane, reference compound]
[1]; Example 4, odorant used as comparison for the t-test
  fear reaction of the comparison odorant: does not induce a fear reaction

## CC1(C)CS1 [isobutylene sulfide]
[1]; Example 4, 270.6 μmol odorant
  Freezing time (%): 4.3 ± 1.9 %

## Brc1nccs1 [2-bromothiazole]
[1]; Example 4, 270.6 μmol odorant
  Freezing time (%): 4.8 ± 1.6 %

## C1CSCCN1 [thiomorpholine]
[1]; Example 4, 270.6 μmol odorant
  Freezing time (%): 15.9 ± 2.5 %

## CCN=C=S [ethyl isothiocyanate]
[1]; Example 4, 270.6 μmol odorant
  Freezing time (%): 14.0 ± 4.5 %

## CC1CN=CS1 (centres unmarked) [5-methyl-2-thiazoline]
[1]; Example 4, 270.6 μmol odorant
  Freezing time (%): 39.6 ± 3.5 %

## CC1=NC(C)SC1C (centres unmarked) [TMT, 2,4,5-trimethyl-3-thiazoline, reference compound]
[1]
  freezing-inducing effect at too high a concentration: decreased effect
[1]; Experimental Example 1, FIG. 1, mice n=5, 270.6 μmol odorant
  freezing time compared with 2 MB (putrid odor): longer freezing time

## CCc1nccs1 [2-ethylthiazole]
[1]; Example 4, 270.6 μmol odorant
  Freezing time (%): 7.3 ± 1.6 %

## CC1(C)NCCS1 [2,2-dimethylthiazolidine]
[1]; Example 4, 270.6 μmol odorant
  Freezing time (%): 29.3 ± 5.2 %

## CC1=NCC(C)S1 (centres unmarked) [2,5-dimethyl-2-thiazoline]
[1]; Example 4, 270.6 μmol odorant
  Freezing time (%): 55.9 ± 4.4 %
